Test results published in article PMC10754118, “Lipophilic Nucleoside Triphosphate Prodrugs of Anti‐HIV Active Nucleoside Analogs as Potential Antiviral Compounds” (Advanced Science, 2023).
Read-outs that look alike come from different tables or passages of the source.

Assays:
[1] = test system: HIV‐1 [HE]; experiment: Anti-HIV activity, HIV-1 in wild-type CEM/0 cells; assay type: cell-based; conditions: for EC50: read-out: Antiviral activity CEM/0 HIV‐1 [HE] EC50
[2] = in vitro; conditions: human
Procedure: The hydrolysis properties of TriPPPro‐compounds 10 and 20 were evaluated in phosphate buffer saline (PBS, pH 7.3), pig liver esterase (PLE) or CEM/0 cell extracts. In both cases, hydrolysis products were analyzed by means of analytical RP18‐HPLC and the hydrolysis half‐lives (Table 1 , t1/2 ) of TriPPPro‐compounds 10 and 20 were calculated after complete consumption of the starting materials.
The hydrolysis of TriPPPro‐compounds 10 and 20 was carried out with CEM/0 cell extracts as well. […]
Part 6. Enzyme-Catalyzed Hydrolysis of TriPPPro-compounds 10 and 20 in CEM Cell […]
First prepare 3.0 mM hydrolysis solutions of Tri PPPro-compounds 10 and 20 in DMSO and H2O: 21 µL stock solution (50 mM in DMSO) and 154 µL DMSO, and 175 µL Milli-Q water. Three-twelve different samples (20 µL 3.0 mM hydrolysis solutions) were prepared in 2 mL Eppendorf® vials. Then, aliquots of 50 µL human CEM cell extracts were added to these samples and the reaction was started. The samples were incubated at 37 °C in a thermomixer for different time periods. The reaction was stopped by addition of 150 µL MeOH and kept on ice for 5 min. After centrifugation at 14,000 rpm for 12 min, the supernatants were filtered (Chromafil RC-20/15 MS, 0.2 μm) and stored in liquid nitrogen. When testing, aliquots of 60 µL (injection volume) were analyzed by analytical HPLC (HPLC Method). The calculation of t1/2 was obtained using Origin again.
(§1) Part 7. Hydrolysis of TriPPPro-compounds 10 and 20 in human plasma.
µL 3.0 mM hydrolysis solutions) were prepared in 2 mL Eppendorf® vials.

[3] = in vitro; conditions: human, CEM/0 cells (wild-type CD4+ T-cells)
Procedure: (§2) All TriPPPro‐compounds 10 and 20, as well as their parent nucleosides and the corresponding NTPs, were evaluated for their antiviral activity (expressed as EC50 values) against HIV‐1 (wild‐type CEM/0 cells) and HIV‐2 (wild‐type CEM/0 cells and thymidine kinase‐deficient (CEM/TK^−) cells) with concomitant determination of cytotoxicity in the same cell line (Table 3 ).

[4] = in vitro; conditions: human, plasma
Procedure: First prepare 50 mM solutions of TriPPPro-compounds 10 and 20 in DMSO. […]
First prepare 3.0 mM hydrolysis solutions of Tri PPPro-compounds 10 and 20 in DMSO and H2O: 21 µL stock solution (50 mM in DMSO) and 154 µL DMSO, and 175 µL Milli-Q water. Three-twelve different samples (20 […]
The calculation of t1/2 was obtained using Origin again.
as §1
µL 3.0 mM hydrolysis solutions) were prepared in 2 mL Eppendorf® vials. Then, aliquots of 50 µL human Plasma (Heparin or Citrate) were added to these samples and the reaction was started. The samples were […]
incubated at 37 °C in a thermomixer for different time periods. The reaction was stopped by addition of 150 µL MeOH and kept on ice for 5 min. After centrifugation at 14,000 rpm for 22 min, the supernatants were filtered (Chromafil RC-20/15 MS, 0.2 μm) and stored in liquid nitrogen. When testing, aliquots of 25 0r 30 µL (injection volume) were analyzed by analytical HPLC (HPLC Method). The calculation of t1/2 was obtained using Origin […]
Part 8. Preparation of cell extracts and human plasma. […]

[5] = test system: pig liver esterase (PLE); experiment: Hydrolysis with pig liver esterase (PLE); assay type: in vitro ADME; conditions: pig liver esterase (PLE) in PBS, PLE in PBS pH 7.3, 37 °C, read-out: PLE t 1/2 (converted)
Text: Next, TriPPPro‐compounds 10 and 20 were exposed to PLE in PBS (pH 7.3) and the half‐lives of TriPPPro‐compounds 10 and 20 are listed in Table 1. […] In contrast, the cleavage of the AB (C4) masking group in TriPPPro‐compounds 10by–hy and 10bz–hz was triggered by ester hydrolysis and yielded the corresponding γ‐alkylated nucleoside triphosphate derivatives 20 (Figure 3B,D) and 21 (Figures S17 and S18, Supporting Information), respectively. […] Moreover, a very small amount of NDPs was observed, probably due to a reaction involving a nucleophilic reaction at the γ‐phosphate or γ‐phosphonate moiety (pathways d and f, Scheme 5). […]
(§3) Part 4. Chemical Hydrolysis of TriPPPro-compounds 10 and 20.
Second prepare 1.9 mM hydrolysis
Part 5. Hydrolysis of TriPPPro-compounds 10 and 20 with PLE .
Second, 125 µL DMSO and 833 µL
62.5 µL of PLE solution in PBS (100
mixture was stored in the freezer (- 30 °C).
by analytical HPLC (HPLC Method).
similar to that for the chemical hydrolysis studies. […]
(§4) Then, aliquots of 50 µL human

[6] = test system: HIV‐2 [ROD]; experiment: Anti-HIV activity, HIV-2 in wild-type CEM/0 cells; assay type: cell-based; conditions: for EC50: read-out: Antiviral activity CEM/0 HIV‐2 [ROD] EC50
[7] = test system: HIV‐2 [ROD)]; experiment: Anti-HIV activity, HIV-2 in thymidine kinase-deficient CEM/TK^− cells; assay type: cell-based
[8] = Chemical hydrolysis in phosphate buffer saline (PBS, pH 7.3); assay type: physicochemical; conditions: PBS pH 7.3, 37 °C, read-out: PBS pH 7.3 t 1/2 (converted)
Procedure: as §3
Second prepare 1.9 mM hydrolysis […]
as §4

[9] = test system: CEM/0; experiment: in vitro; conditions: read-out: Toxicity CEM/0 CC50; 50% cytostatic concentration, CEM proliferation
Procedure: as §2

[10] = target: T1, HIV‐RT (Human immunodeficiency virus type 1 group M subtype B, UniProt P03366); design: method as in PMID 37647547; conditions: cited from earlier work
T1 construct: HIV reverse transcriptase (HIV‐RT); purchased Roboklon

[11] = Human immunodeficiency virus 1, CCRF-CEM, wild-type CEM/0 cells, mean ±SD n = 2–3
[12] = wild-type CEM/0 cells, vs parent nucleoside
[13] = t 1/2 in human plasma (over heparin and citrate plasma)
[14] = Human immunodeficiency virus 2, CCRF-CEM, wild-type CEM/0 cells, mean ±SD n = 2–3
[15] = Human immunodeficiency virus 2, CEM-TK(-), thymidine kinase-deficient CEM/TK^− cells, mean ±SD n = 2–3; read-out: Antiviral activity CEM/TK^− HIV‐2 [ROD)] EC50
[16] = wild-type CEM/0 cells, mean ±SD n = 2–3
[17] = thymidine kinase-deficient CEM/TK^− cells, mean ±SD n = 2–3; read-out: Antiviral activity CEM/TK^− HIV‐2 [ROD)] EC50

SMILES | EC50 [1, 11] | half-life at 0.86 mM [2] | CC50 [3] | half-life at 0.86 mM ([4]; Plasma (Citrate) t 1/2) | half-life at 0.86 mM ([4]; Plasma (Heparin) t 1/2) | half-life at 0.45 mM [5] | EC50 [6, 14] | EC50 [7, 15] | half-life at 1.9 mM [8] | EC50 [1, 16] | CC50 [9] | EC50 [6, 16] | EC50 [7, 17] | further results
CCCCCCCCCCCCCCCCCCOP(=O)(OCCCC)OP(=O)(O)OP(=O)(O)OC[C@@H]1C=C[C@H](n2cnc3c(NC4CC4)nc(N)nc32)C1 (stereo partly drawn) [10hv, γ‐(C4;C18)‐ABCTP] | 24 ± 1.4 nM | 3 h | 39000 ± 4700 nM | > 20 h | > 8 h | > 150 h | 46 ± 16 nM | 4.8 ± 2.1 nM | 10.5 days |  |  |  |  | fold improvement compared to cycloSal‐ABCMP, HIV-1 ([1]; wild-type CEM/0 cells): 30 fold; fold higher activity than the parent nucleoside, HIV-1 [1, 12]: ~400 fold; half-life at 0.86 mM [4, 13]: > 8 h; fold improvement compared to cycloSal‐ABCMP, HIV-2 ([6]; wild-type CEM/0 cells): 16 fold; fold higher activity than the parent nucleoside, HIV-2 [6, 12]: 80 fold; fold improved activity compared to the parent nucleoside, HIV-2 ([7]; CEM/TK^− cells, vs parent nucleoside): 410 fold; fold higher activity compared to the corresponding compound 20 ([7]; HIV-2, CEM/TK^− cells, vs 20h): 33 fold; improvement of antiviral activity in CEM/TK^− cells compared to wild-type CEM/0 cells ([7]; same compound, CEM/TK^− vs CEM/0): tenfold
CCCCCCCCCCCCCCCCCCP(=O)(OCCCC)OP(=O)(O)OP(=O)(O)OC[C@@H]1C=C[C@H](n2cnc3c(NC4CC4)nc(N)nc32)C1 (stereo partly drawn) [10hx] |  | > 10 h | 38600 nM | > 20 h | > 20 h | > 150 h |  |  | > 41.7 days |  |  |  |  | EC50 ([1]; Human immunodeficiency virus 1, CCRF-CEM): 150 ± 140 nM; half-life at 0.86 mM [4, 13]: > 8 h; EC50 ([6]; Human immunodeficiency virus 2, CCRF-CEM): 44 ± 33 nM; EC50 ([7]; Human immunodeficiency virus 2, CEM-TK(-), read-out: Antiviral activity CEM/TK^− HIV‐2 [ROD)] EC50): 5.8 nM
CCCCCCCCCCCCCCCCCCP(=O)(OCc1ccc(OC(=O)CCCC)cc1)OP(=O)(O)OP(=O)(O)OC[C@@H]1C=C[C@H](n2cnc3c(NC4CC4)nc(N)nc32)C1 (stereo partly drawn) [10hz, γ‐(AB‐C4)‐γ‐C‐(alkyl‐C18)‐ABCTP] | 200 nM | 7.7 h | 38200 ± 1300 nM | 5.6 h | 4.1 h | 1.11 h | 170 ± 64 nM | 19 ± 1 nM | 22.2 days |  |  |  |  | half-life at 0.86 mM [4, 13]: 4.1 to 5.6 h
CCCCCCCCCCCCCCCCCCOP(=O)(O)OP(=O)(O)OP(=O)(O)OCC1OC(n2cc(C)c(=O)[nH]c2=O)CC1N=[N+]=[N-] (stereo not drawn) [20b, γ‐(alkyl‐C18)‐AZTTP] | 28 ± 31 nM | > 30 h | > 100000 nM | > 20 h | 3.7 h | > 150 h | 30 ± 1 nM | 4100 ± 2600 nM | > 83.3 days |  |  |  |  | 
CCCCCCCCCCCCCCCCCCOP(=O)(O)OP(=O)(O)OP(=O)(O)OC[C@@H]1C=C[C@H](n2cnc3c(NC4CC4)nc(N)nc32)C1 [20h, γ‐C18‐ABCTP] | 260 ± 130 nM | > 10 h | > 100000 nM | > 20 h | 4.8 h | > 150 h | 420 ± 110 nM | 160 ± 160 nM | > 83.3 days |  |  |  |  | 
Nc1nc(NC2CC2)c2ncn([C@H]3C=C[C@@H](COP(=O)(O)OP(=O)(O)OP(=O)(O)O)C3)c2n1 [ABCTP, reference compound] |  |  |  |  |  |  |  |  |  | 1850 ± 2140 nM | > 100000 nM | 1020 ± 130 nM | 850 ± 400 nM | 
O=c1[nH]c(=O)n([C@H]2C[C@H](O)[C@@H](COP(=O)(O)OP(=O)(O)OP(=O)(O)O)O2)cc1/C=C/Br [BVDUTP, reference compound] |  |  |  |  |  |  |  |  |  | 4730 ± 3050 nM | > 100000 nM | 5640 ± 4450 nM | > 100000 nM | 
Cc1cn([C@H]2C[C@H](F)[C@@H](COP(=O)(O)OP(=O)(O)OP(=O)(O)O)O2)c(=O)[nH]c1=O [FLTTP, reference compound] |  |  |  |  |  |  |  |  |  | 7.6 ± 9.1 nM | > 100000 nM | 18 ± 9 nM | 4920 ± 2430 nM | 
Nc1nc(=O)n([C@@H]2CS[C@H](COP(=O)(O)OP(=O)(O)OP(=O)(O)O)O2)cc1F [FTCTP, reference compound] |  |  |  |  |  |  |  |  |  | 28 ± 15 nM | > 100000 nM | 43 ± 40 nM | 25 ± 27 nM | 
O=c1[nH]c(=O)n([C@H]2C[C@H](F)[C@@H](COP(=O)(O)OP(=O)(O)OP(=O)(O)O)O2)cc1Cl [FddClUTP, reference compound] |  |  |  |  |  |  |  |  |  | 840 ± 860 nM | > 100000 nM | 650 ± 130 nM | > 100000 nM | 
O=c1ccn([C@H]2C[C@H](F)[C@@H](COP(=O)(O)OP(=O)(O)OP(=O)(O)O)O2)c(=O)[nH]1 [FddUTP, reference compound] |  |  |  |  |  |  |  |  |  | 150 ± 130 nM | > 100000 nM | 260 ± 320 nM | 35400 ± 43900 nM | 
Cc1cn([C@H]2C=C[C@@H](COP(=O)(O)OP(=O)(O)O)O2)c(=O)[nH]c1=O [d4TDP] |  |  |  |  |  |  |  |  |  |  |  |  |  | accepted by HIV‐RT as a substrate [10]: accepted
Cc1cn([C@H]2C=C[C@@H](COP(=O)(O)OP(=O)(O)OP(=O)(O)O)O2)c(=O)[nH]c1=O [d4TTP] |  |  |  |  |  |  |  |  |  |  |  |  |  | accepted by HIV‐RT as a substrate [10]: accepted
